# In PubChem BioAssay AID328 (DTP/NCI, 2004):
# Values joined by “and” are separate entries in the source; they are usually repeats but may differ in a detail not shown here. Equal values may be shown once. Inconclusive results and toxic doses are left out.
# Tested on: BDF1 mice, P388 leukemia ip, median survival T/C
# Test: NCI In Vivo Anticancer Drug Screen. Data for tumor model P388 Leukemia (intraperitoneal) in B6D2F1 (BDF1) mice
# Conditions: endpoint: median survival time, higher = longer survival
# How it was run: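 In tumour-bearing mice, survival after compound treatment is set against the vehicle group and given as a quotient.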
# [1] = dose: 25.0 mg/kg/injection, schedule: Q01DX009 (ip), vehicle: Klucel (hydroxypropylcellulose) (HPC)
# [2] = dose: 50.0 mg/kg/injection, schedule: Q01DX009 (ip), vehicle: Klucel (hydroxypropylcellulose) (HPC)
# [3] = dose: 50.0 mg/kg/injection, schedule: Q01DX009 (ip), vehicle: saline with Tween-80
# [4] = dose: 100.0 mg/kg/injection, schedule: Q01DX009 (ip), vehicle: Klucel (hydroxypropylcellulose) (HPC)
# [5] = dose: 100.0 mg/kg/injection, schedule: Q01DX001 (ip), vehicle: saline with Tween-80
# [6] = dose: 200.0 mg/kg/injection, schedule: Q01DX009 (ip), vehicle: saline with Tween-80
# [7] = dose: 100.0 mg/kg/injection, schedule: Q01DX009 (ip), vehicle: saline with Tween-80
# [8] = dose: 100.0 mg/kg/injection, schedule: Q04DX003 (ip), vehicle: saline with Tween-80
# [9] = dose: 200.0 mg/kg/injection, schedule: Q01DX009 (ip), vehicle: Klucel (hydroxypropylcellulose) (HPC)
# [10] = dose: 100.0 mg/kg/injection, schedule: Q04DX003 (ip), vehicle: other
smiles,measurement,setting,value
N#Cc1ccc(S(N)(=O)=O)cc1,T/C,"dose: 12.5 mg/kg/injection, schedule: Q04DX003 (ip), vehicle: Klucel (hydroxypropylcellulose) (HPC)",109 % of control
same,T/C,[1],111 % of control
same,T/C,"dose: 25.0 mg/kg/injection, schedule: Q04DX003 (ip), vehicle: Klucel (hydroxypropylcellulose) (HPC)",109 % of control
same,T/C,[2],111 % of control
same,T/C,[3],100 % of control
same,T/C,"dose: 50.0 mg/kg/injection, schedule: Q04DX003 (ip), vehicle: Klucel (hydroxypropylcellulose) (HPC)",104 % of control
same,T/C,[4],111 % of control
S=C(Nc1ccccc1)N(C1CCCCC1)C1CCCCC1,T/C,[5],100 % of control
same,T/C,"dose: 200.0 mg/kg/injection, schedule: Q01DX001 (ip), vehicle: saline with Tween-80",103 % of control
same,T/C,[6],155 % of control
same,T/C,"dose: 400.0 mg/kg/injection, schedule: Q01DX001 (ip), vehicle: saline with Tween-80",103 % of control
CC(C)COC(=O)CN(CC(=O)OCC(C)C)c1ccccc1,T/C,[7],95 % of control
same,T/C,[6],100 % of control
same,T/C,"dose: 400.0 mg/kg/injection, schedule: Q01DX009 (ip), vehicle: saline with Tween-80",110 % of control
N#Cc1cc([N+](=O)[O-])ccc1Cl,T/C,"dose: 25.0 mg/kg/injection, schedule: Q01DX009 (ip), vehicle: saline with Tween-80",90 % of control
same,T/C,[3],105 % of control
same,T/C,[7],105 % of control
O=c1oc(-c2cc([N+](=O)[O-])ccc2Cl)nc2ccccc12,T/C,"dose: 25.0 mg/kg/injection, schedule: Q04DX003 (ip), vehicle: saline with Tween-80",95 % of control
same,T/C,[8],95 % of control
COc1ccc(-c2oc3cc(O)c(OC)c(O)c3c(=O)c2OC)cc1O,T/C,"dose: 10.0 mg/kg/injection, schedule: Q01DX010 (ip), vehicle: saline",100 % of control
same,T/C,"dose: 20.0 mg/kg/injection, schedule: Q01DX010 (ip), vehicle: saline",100 % of control
same,T/C,"dose: 40.0 mg/kg/injection, schedule: Q01DX010 (ip), vehicle: saline",113 % of control
CSN1C(=O)CCC1=O,T/C,"dose: 50.0 mg/kg/injection, schedule: Q04DX002 (ip), vehicle: saline",107 % of control
same,T/C,"dose: 100.0 mg/kg/injection, schedule: Q04DX002 (ip), vehicle: saline",100 % of control
same,T/C,"dose: 200.0 mg/kg/injection, schedule: Q04DX002 (ip), vehicle: saline",109 % of control
NN(C(=O)c1ccccc1)C1CCCCC1,T/C,"dose: 25.0 mg/kg/injection, schedule: Q01DX009 (ip), vehicle: alcohol",91 % of control
same,T/C,"dose: 50.0 mg/kg/injection, schedule: Q01DX009 (ip), vehicle: alcohol",100 % of control
same,T/C,"dose: 75.0 mg/kg/injection, schedule: Q04DX003 (ip), vehicle: Klucel (hydroxypropylcellulose) (HPC)",110 % of control
same,T/C,"dose: 115.0 mg/kg/injection, schedule: Q04DX003 (ip), vehicle: Klucel (hydroxypropylcellulose) (HPC)",120 % of control
same,T/C,"dose: 170.0 mg/kg/injection, schedule: Q04DX003 (ip), vehicle: Klucel (hydroxypropylcellulose) (HPC)",100 % of control
same,T/C,"dose: 255.0 mg/kg/injection, schedule: Q04DX003 (ip), vehicle: Klucel (hydroxypropylcellulose) (HPC)",110 % of control
same,T/C,"dose: 385.0 mg/kg/injection, schedule: Q04DX003 (ip), vehicle: Klucel (hydroxypropylcellulose) (HPC)",100 % of control
COC(=O)c1ccc(CSc2ccccc2NC(=S)Nc2cccc(SC)c2)o1,T/C,[3],90 % of control
same,T/C,[7],92 % of control
same,T/C,[6],90 % of control
C/C(=C\Cl)CO,T/C,"dose: 56.25 mg/kg/injection, schedule: Q01DX001 (ip), vehicle: saline",95 % of control
same,T/C,"dose: 56.25 mg/kg/injection, schedule: Q04DX003 (ip), vehicle: saline",100 % of control
same,T/C,"dose: 112.5 mg/kg/injection, schedule: Q01DX001 (ip), vehicle: saline",100 % of control
same,T/C,"dose: 112.5 mg/kg/injection, schedule: Q04DX003 (ip), vehicle: saline",95 % of control
same,T/C,"dose: 150.0 mg/kg/injection, schedule: Q01DX009 (ip), vehicle: alcohol",95 % of control
same,T/C,"dose: 225.0 mg/kg/injection, schedule: Q01DX001 (ip), vehicle: saline",90 % of control
same,T/C,"dose: 225.0 mg/kg/injection, schedule: Q01DX009 (ip), vehicle: alcohol",100 % of control
same,T/C,"dose: 225.0 mg/kg/injection, schedule: Q04DX003 (ip), vehicle: saline",90 % of control
CC(=O)Nc1ccc2c(c1)C(N)c1ccccc1-2 (stereo not drawn),T/C,[3],100 % of control
same,T/C,[7],104 % of control
same,T/C,"dose: 133.0 mg/kg/injection, schedule: Q01DX009 (ip), vehicle: Klucel (hydroxypropylcellulose) (HPC)",95 % of control
same,T/C,[9],105 % of control
same,T/C,[6],87 % of control
same,T/C,"dose: 300.0 mg/kg/injection, schedule: Q01DX009 (ip), vehicle: Klucel (hydroxypropylcellulose) (HPC)",100 % of control
CCN(c1ccc(C=O)cc1)c1ccc([N+](=O)[O-])cc1[N+](=O)[O-],T/C,[2],99 % of control
same,T/C,[4],97 % of control
same,T/C,[9],97 % of control
CCCN(CCC)CCCC#N,T/C,"dose: 50.0 mg/kg/injection, schedule: Q04DX003 (ip), vehicle: saline with Tween-80",100 % of control
same,T/C,[8],100 % of control
same,T/C,"dose: 200.0 mg/kg/injection, schedule: Q04DX003 (ip), vehicle: saline with Tween-80",100 % of control
O=C(O)O.[Mn],T/C,"dose: 100.0 mg/kg/injection, schedule: Q01DX010 (ip), vehicle: water",86 % of control and 93 % of control
same,T/C,"dose: 200.0 mg/kg/injection, schedule: Q01DX010 (ip), vehicle: water",91 % of control
same,T/C,"dose: 400.0 mg/kg/injection, schedule: Q01DX010 (ip), vehicle: water",77 % of control
same,T/C,"dose: 800.0 mg/kg/injection, schedule: Q01DX010 (ip), vehicle: water",83 % of control and 86 % of control
COc1cccc2c1C(=O)c1c(O)c3c(c(O)c1C2=O)C[C@@](O)(C(C)=O)C[C@@H]3OC(=O)CCN,T/C,"dose: 1.56 mg/kg/injection, schedule: Q01DX009 (ip), vehicle: water",100 % of control and 123 % of control
same,T/C,"dose: 3.12 mg/kg/injection, schedule: Q01DX009 (ip), vehicle: water",93 % of control
same,T/C,"dose: 6.25 mg/kg/injection, schedule: Q01DX009 (ip), vehicle: water",169 % of control
OCc1ccc(Cl)c(Cl)c1,T/C,[10],104 % of control
same,T/C,"dose: 200.0 mg/kg/injection, schedule: Q04DX003 (ip), vehicle: other",104 % of control
same,T/C,"dose: 400.0 mg/kg/injection, schedule: Q04DX003 (ip), vehicle: other",100 % of control
C[NH-].C[NH-].O=C(O)C(=O)O.[Pt+2],T/C,"dose: 2.0 mg/kg/injection, schedule: Q04DX003 (ip), vehicle: other",158 % of control
same,T/C,"dose: 3.0 mg/kg/injection, schedule: Q04DX003 (ip), vehicle: other",200 % of control
same,T/C,"dose: 4.4 mg/kg/injection, schedule: Q04DX003 (ip), vehicle: other",154 % of control
same,T/C,"dose: 4.5 mg/kg/injection, schedule: Q04DX003 (ip), vehicle: other",166 % of control
same,T/C,"dose: 6.7 mg/kg/injection, schedule: Q04DX003 (ip), vehicle: other",186 % of control
same,T/C,"dose: 10.0 mg/kg/injection, schedule: Q04DX003 (ip), vehicle: other",190 % of control
same,T/C,"dose: 10.5 mg/kg/injection, schedule: Q04DX003 (ip), vehicle: other",170 % of control
same,T/C,"dose: 12.5 mg/kg/injection, schedule: Q04DX003 (ip), vehicle: other",208 % of control
same,T/C,"dose: 16.0 mg/kg/injection, schedule: Q04DX003 (ip), vehicle: other",208 % of control
same,T/C,"dose: 25.0 mg/kg/injection, schedule: Q04DX003 (ip), vehicle: other",250 % of control and 254 % of control and 183 % of control
same,T/C,[10],90 % of control
CC1=CC=CC(C)(Cc2ccc(-c3ccc(CC4(C)C=CC=C(C)C4=O)cc3)cc2)C1=O (stereo not drawn),T/C,"dose: 25.0 mg/kg/injection, schedule: Q01DX001 (ip), vehicle: saline with Tween-80",95 % of control
same,T/C,"dose: 50.0 mg/kg/injection, schedule: Q01DX001 (ip), vehicle: saline with Tween-80",95 % of control
same,T/C,[5],90 % of control
COCn1cnc2c(F)ncnc21,T/C,"dose: 6.25 mg/kg/injection, schedule: Q01DX009 (ip), vehicle: Klucel (hydroxypropylcellulose) (HPC)",86 % of control
same,T/C,"dose: 6.25 mg/kg/injection, schedule: Q04DX003 (ip), vehicle: saline",95 % of control
same,T/C,"dose: 12.5 mg/kg/injection, schedule: Q01DX009 (ip), vehicle: Klucel (hydroxypropylcellulose) (HPC)",90 % of control
same,T/C,"dose: 12.5 mg/kg/injection, schedule: Q04DX003 (ip), vehicle: saline",109 % of control
same,T/C,[1],86 % of control
same,T/C,"dose: 25.0 mg/kg/injection, schedule: Q04DX003 (ip), vehicle: saline",100 % of control
CN(C)C=Nc1ccccc1,T/C,[4],113 % of control
same,T/C,[9],95 % of control
same,T/C,"dose: 400.0 mg/kg/injection, schedule: Q01DX009 (ip), vehicle: Klucel (hydroxypropylcellulose) (HPC)",109 % of control
